One assay relates to Jcl : SD rats. Put plainly: inhibition of the pressor response to angiotensin II in rats, oral. The conditions noted are these: Rattus norvegicus, p.o. The class given is in vivo. The text has this:
Inhibitory effect of the compound of the present invention on pressor action of A-II
Jcl : SD rats (9 week old, male) were used. On the day previous to the experiment, these animals were applied with cannulation into the femoral artery and vein under anesthesia with pentobarbital Na. The animals were fasted but allowed to access freely to drinking water until the experiment was started. Just on the day of conducting the experiment, the artery cannula was connected with a blood-pressure transducer, and the average blood pressure was recorded by means of polygraph. Before administration of the drug, the pressor action due to intravenous administration of A-II (100 ng/kg) as the control was measured. The drugs were orally administered, and then, at each point of the measurement, A-II was administered intravenously, and the pressor action was similarly measured. By comparing the pressor action before and after administration of the drug, the percent inhibition by the drug on A-II-induced pressor action was evaluated.

A further assay deals with T1, A-II-receptor (Bos taurus, UniProt P25104).
T1 construct: An A-II-receptor was prepared from the membrane fraction of bovine adrenal cortex
T1 sequence (P25104 1-359): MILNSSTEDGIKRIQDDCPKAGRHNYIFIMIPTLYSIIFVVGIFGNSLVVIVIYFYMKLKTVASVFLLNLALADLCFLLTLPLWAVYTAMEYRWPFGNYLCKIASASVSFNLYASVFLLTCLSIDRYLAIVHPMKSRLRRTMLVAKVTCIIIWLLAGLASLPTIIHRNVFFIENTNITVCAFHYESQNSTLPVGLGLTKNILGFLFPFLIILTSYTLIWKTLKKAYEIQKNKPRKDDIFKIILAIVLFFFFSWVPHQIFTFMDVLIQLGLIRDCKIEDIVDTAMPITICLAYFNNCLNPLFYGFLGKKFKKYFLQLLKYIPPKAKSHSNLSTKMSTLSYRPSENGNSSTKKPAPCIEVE
Description: displacement of 125I-angiotensin II from bovine adrenal cortex membranes. The class given is binding, membrane fraction. The conditions noted are these: for inhibition at 1 µM: read-out: Radioreceptor Assay (%) / 1X10⁻⁶M; for inhibition at 0.1 µM: read-out: Radioreceptor Assay (%) / 1X10⁻⁷M. Here is the method: Inhibition of binding of angiotensin-II to angiotensin receptor
An experiment of inhibition on the binding of angiotensin-II (A-II) to A-II-receptor was conducted by modifying the method of Douglas et al. [Endocrinology, 102, 685-696 (1978)]. An A-II-receptor was prepared from the membrane fraction of bovine adrenal cortex.
The compound of the present invention (10⁻⁷M or 10⁻⁶M ) and ¹²⁵I-A-II (1.85 kBq/50 µl) were added to the receptor membrane fraction, and the mixture was incubated at room temperature for one hour. The receptor-bound and free ¹²⁵I-A-II were separated through a filter (Whatman GF/B filter), and the radioactivity of ¹²⁵I-A-II bound to the receptor was measured.

Consider `CCCCc1nc2cccnc2n1Cc1ccc(-c2ccccc2-c2nnn[nH]2)cc1` [compound 3, 2-Butyl-3-[2'-[(1H-tetrazol-5-yl)biphenyl-4-yl]methyl]imidazo[4,5-b]pyridine], for which, in the assay on Jcl : SD rats (10 mg/kg), the inhibition at 10 mg/kg fell in the range of 50 to 70%. The molecule also returned an inhibition at 30 mg/kg with Jcl : SD rats of more than 70%. On A-II-receptor, the inhibition at 1 µM amounted to 92% and the inhibition at 0.1 µM was found to be 63%.

Regarding `CCCCc1nc2cc(C)cnc2n1Cc1ccc(-c2ccccc2-c2nnn[nH]2)cc1` [compound 15, 2-Butyl-6-methyl-3-[[2'-(1H-tetrazol-5-yl)-biphenyl-4-yl]methyl]imidazo[5,4-b]pyridine, 0.3 H2O], at A-II-receptor, the inhibition at 1 µM came out at 75% and the inhibition at 0.1 µM came to 32%.

Turning to `CCCCc1nc2cc(Br)c(C)nc2n1Cc1ccc(-c2ccccc2-c2nnn[nH]2)cc1` [compound 24, 6-Bromo-2-butyl-5-methyl-3-[[2'-(1H-tetrazol-5-yl)biphenyl-4-yl]methyl]imidazo[5,4-b]pyridine], on A-II-receptor, the inhibition at 1 µM came to 9% and the inhibition at 0.1 µM was 0%.

Turning to `CCCCc1nc2nccnc2n1Cc1ccc(-c2ccccc2-c2nnn[nH]2)cc1` [compound 6, 2-Butyl-1-[[2'-(1H-tetrazol-5-yl)biphenyl-4-yl]methyl]imidazo[4,5-b]pyrazine, 0.4 H2O], on A-II-receptor, the inhibition at 1 µM came out at 81% and the inhibition at 0.1 µM was 43%.

Consider `CCCc1nc2ccc(OC)nc2n1Cc1ccc(-c2ccccc2-c2nnn[nH]2)cc1` [compound 23, 5-Methoxy-2-propyl-3-[[2'-(1H-tetrazol-5-yl)-biphenyl-4-yl]methyl]imidazo[4,5-b]pyridine, 0.3 H2O], for which, on A-II-receptor, the inhibition at 1 µM amounted to 75% and the inhibition at 0.1 µM was 32%.

Turning to `CCCCc1nc2cnccc2n1Cc1ccc(-c2ccccc2-c2nnn[nH]2)cc1` [compound 13, 2-Butyl-1-[[2'-(1H-tetrazol-5-yl)biphenyl]-methyl]imidazo[4,5-c]pyridine, 0.2 H2O], at A-II-receptor, the inhibition at 1 µM turned out to be 44% and the inhibition at 0.1 µM stood at 1%.

Regarding `CCCCc1nc2ccncc2n1Cc1ccc(-c2ccccc2-c2nnn[nH]2)cc1` [compound 14, 2-Butyl-3-[[2'-(1H-tetrazol-5-yl)biphenyl]-methyl]imidazo[4,5-c]pyridine, 0.2 H2O], at A-II-receptor, the inhibition at 1 µM is 56% and the inhibition at 0.1 µM worked out at 9%.

As for `CCCCc1nc2ncccc2n1Cc1ccc(-c2ccccc2-c2nnn[nH]2)cc1` [compound 4, 0.4 H2O], at A-II-receptor, the inhibition at 1 µM came to 48% and the inhibition at 0.1 µM came to 5%.

Regarding `CCCCc1nc2ncc(C)cc2n1Cc1ccc(-c2ccccc2-c2nnn[nH]2)cc1` [compound 16, 2-Butyl-6-methyl-1-[[2'-(1H-tetrazol-5-yl)-biphenyl-4-yl]methyl]imidazo[5,4-b]pyridine, 0.4 H2O], at A-II-receptor, the inhibition at 1 µM came to 32% and the inhibition at 0.1 µM is 0%.

On to `CCc1nc2cccnc2n1Cc1ccc(-c2ccccc2-c2nnn[nH]2)cc1` [compound 9, 2-Ethyl-3-[[2'-(1H-tetrazol-5-yl)biphenyl-4-yl]methyl]imidazo[4,5-b]pyridine, 1/2 EtOAc], for which, in the assay on Jcl : SD rats, the inhibition at 30 mg/kg was more than 70%. For the same molecule, at A-II-receptor, the inhibition at 1 µM amounted to 84% and the inhibition at 0.1 µM stood at 50%.

The values above are taken from patent publication EP0434038A1, “Fused imidazole derivatives, their production and use” (Takeda Chemical Industries, Ltd., priority 1989, dated 1991).
